Data as given in article PMC9837800 (Journal of medicinal chemistry, 2022).

Tests used:
PKMYT1 [1] = target: T1, PKMYT1 (Homo sapiens, UniProt Q99640); test: Fluorescence polarization competitive displacement screen with Tracer 178; conditions: Tracer 178 binding probe
T1 sequence (Q99640 1-499): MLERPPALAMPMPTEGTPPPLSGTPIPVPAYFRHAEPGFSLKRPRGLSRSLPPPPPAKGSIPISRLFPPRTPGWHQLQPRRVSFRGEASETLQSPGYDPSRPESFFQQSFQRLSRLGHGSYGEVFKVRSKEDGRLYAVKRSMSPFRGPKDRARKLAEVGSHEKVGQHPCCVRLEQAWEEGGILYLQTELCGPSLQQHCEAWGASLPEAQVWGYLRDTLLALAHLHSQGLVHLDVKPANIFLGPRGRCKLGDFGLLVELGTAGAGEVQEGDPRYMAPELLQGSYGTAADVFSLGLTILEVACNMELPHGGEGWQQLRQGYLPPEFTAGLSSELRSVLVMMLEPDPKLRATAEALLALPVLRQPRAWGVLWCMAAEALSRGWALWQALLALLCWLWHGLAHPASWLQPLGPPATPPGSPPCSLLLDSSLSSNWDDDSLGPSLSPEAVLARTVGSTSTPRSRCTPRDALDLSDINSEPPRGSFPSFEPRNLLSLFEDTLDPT

PKMYT1 [2] = target: T1, PKMYT1
in vitro [3] = conditions: human, Caco-2
[4] = CD-1 mouse pharmacokinetic study; conditions: female, in vivo, iv, 1 mg/kg
in vivo [5] = conditions: male, beagle, dog, plasma, iv, 0.5 mg/kg
[6] = test system: OVCAR3 CCNE1 amplified xenograft; conditions: PO twice daily (BID), OVCAR3 model ref 6; cited from earlier work
in vivo [7] = conditions: male, Sprague-Dawley, rat, iv, 1 mg/kg
in vivo [8] = conditions: male, cynomolgus monkey, plasma, iv, 0.5 mg/kg
in vitro [9] = conditions: human, hepatocytes

## Cc1nc(Nc2ncc(C(=O)Nc3c(C)cccc3Cl)s2)cc(N2CCN(CCO)CC2)n1 [dasatinib]
PKMYT1 [1]
  result in focused screen of 560 known kinase inhibitors: potent hits

## NC(=O)c1c(N)n(-c2cccc3[nH]cnc23)c2nc3ccccc3nc12 [Compound 13, 2-amino-1-(1H-benzimidazol-4-yl)pyrrolo[3,2-b]quinoxaline-3-carboxamide]
PKMYT1 [2]
  PKMYT1 inhibition in biochemical ADP release enzymatic assay (in words): inactive

## Cc1ccc(N)cc1-n1c(N)c(C(N)=O)c2nc3ccccc3nc21 [Compound 9, 2-amino-1-(5-amino-2-methyl-phenyl)pyrrolo[3,2-b]quinoxaline-3-carboxamide]
PKMYT1 [2]
  PKMYT1 inhibition in biochemical ADP release enzymatic assay (in words): inactive

## NC(=O)c1c(N)n(-c2cccc3[nH]ccc23)c2nc3ccccc3nc12 [Compound 11, 2-amino-1-(1H-indol-4-yl)pyrrolo[3,2-b]quinoxaline-3-carboxamide]
PKMYT1 [2]
  PKMYT1 inhibition in biochemical ADP release enzymatic assay (in words): inactive

## Cc1c(O)ccc(Cl)c1-n1c(N)c(C(N)=O)c2nc3ccccc3nc21 [Compound 17, 2-amino-1-(6-chloro-3-hydroxy-2-methyl-phenyl)pyrrolo[3,2-b]quinoxaline-3-carboxamide]
In vitro [3]
  Papp A→B: 14.1 ×10⁻⁶ cm/s

## NC(=O)c1c(N)n(-c2cccc3[nH]nnc23)c2nc3ccccc3nc12 [Compound 12, 2-amino-1-(1H-benzotriazol-4-yl)pyrrolo[3,2-b]quinoxaline-3-carboxamide]
PKMYT1 [2]
  PKMYT1 inhibition in biochemical ADP release enzymatic assay (in words): inactive

## Cc1ccccc1-n1c(N)c(C(N)=O)c2nc3ccccc3nc21 [Compound 2, reference compound]
PKMYT1 [2]
  PKMYT1 inhibition in biochemical ADP release enzymatic assay (in words): inactive

## Cc1cc(O)ccc1-n1c(N)c(C(N)=O)c2nc3ccccc3nc21 [Compound 3, 2-amino-1-(4-hydroxy-2-methyl-phenyl)pyrrolo[3,2-b]quinoxaline-3-carboxamide]
PKMYT1 [2]
  PKMYT1 inhibition in biochemical ADP release enzymatic assay (in words): inactive

## NC(=O)c1c(N)n(-c2c(Cl)ccc(O)c2Cl)c2nc3ccccc3nc12 [Compound 18, 2-amino-1-(2,6-dichloro-3-hydroxy-phenyl)pyrrolo[3,2-b]quinoxaline-3-carboxamide]
In vitro [3]
  Papp A→B: 18.8 ×10⁻⁶ cm/s

## Cc1cc2c(C(N)=O)c(N)n(-c3c(C)ccc(O)c3C)c2nc1C [RP-6306, (S)-2-amino-1-(3-hydroxy-2,6-dimethyl-phenyl)-5,6-dimethyl-pyrrolo[2,3-b]pyridine-3-carboxamide]
[4]
  clearance at 24 h: 30.4 mL/min/kg
In vivo [5]
  clearance at 24 h: 13.1 mL/min/kg
[6]
  maximum tolerated dose: 20 mg/kg

## Cc1ccc(O)c(C)c1-n1c(N)c(C(N)=O)c2cc(Cl)cnc21 [Compound 55, (S)-2-amino-5-chloro-1-(3-hydroxy-2,6-dimethyl-phenyl)pyrrolo[2,3-b]pyridine-3-carboxamide]
In vivo [7]
  clearance at 24 h: 25.6 mL/min/kg
[4]
  clearance at 24 h: 59.2 mL/min/kg
In vivo [5]
  clearance at 24 h: 21.3 mL/min/kg
In vivo [8]
  clearance at 24 h: 19.4 mL/min/kg
In vitro [9]
  hepatocyte CLint: 4.5 µL/min/1e6 cells

## Cc1ccc(C(F)F)cc1-n1c(N)c(C(N)=O)c2nc3ccccc3nc21 [Compound 14, 2-amino-1-[5-(difluoromethyl)-2-methyl-phenyl]pyrrolo[3,2-b]quinoxaline-3-carboxamide]
PKMYT1 [2]
  PKMYT1 inhibition in biochemical ADP release enzymatic assay (in words): inactive
